Source: article PMC6400181, “Calixarene-mediated assembly of a small antifungal protein” (IUCrJ, 2019)

Legend:
[1] = biological target: PAF (Penicillium antifungal protein) (Penicillium chrysogenum, UniProt Q01701); test: Isothermal titration calorimetry of PAF–sclxn complexation; type: binding; details: ITC, median (2.5% quantile, 97.5% quantile)
Experimental: PAF samples were dissolved in 10 mM sodium phosphate pH 6.0. The same buffer was used to dilute stocks of sclx4 (7.1 mM, PAF 0.5 mM), sclx6 (3.6 mM, PAF 0.5 mM) and sclx8 (2.5 mM, PAF 0.3 mM) to the required concentration. Samples were degassed prior to the titration. Measurements were made at 25°C using a Microcal ITC-200 instrument. Titrations were performed in duplicate with similar trends between each replicate. A single replicate from each calixarene was used for model fitting. Separate titrations of each calixarene into buffer confirmed that the heats of dilution were small, exothermic and approximately constant.
NITPIC (Keller et al., 2012[▸]) was used for baseline correction and integration of the thermograms. Pytc (Duvvuri et al., 2018[▸]) was used to perform model fitting and parameter estimation. The system of equations relating the independent variables of the model (total concentrations) to the experimental observations (heat generated during injections) for the single-site and bidentate-ligand models are as follows.
Single-site model, [drawing 1] [drawing 2] [drawing 3] where [P T]i is the total cell concentration of protein at the ith injection (independent variable), [L T]i is the total cell concentration of ligand at the ith injection (independent variable), K 1 is the equilibrium association constant (fit parameter), ΔH is the enthalpy (fit parameter) associated with K, V cell is the volume of the cell, vi is the volume of the ith injection, qi is the heat generated from the ith injection (dependent variable) and q dil is the heat of dilution (fit parameter, assumed to be constant)
Bidentate-ligand model, [drawing 4] [drawing 5] [drawing 6] where K 1 and K 2 are the microscopic equilibrium association constants (fit parameters), ΔH 1 and ΔH 2 are the enthalpies (fit parameters) associated with K 1 and K 2, respectively
The expressions for mass balance of the protein and ligand can be represented by equations (1) or (4). Equation (2) or (5) can be used to define the equilibrium constants. For the bidentate ligand model, equation (5) was solved numerically (the Levenberg–Marquardt algorithm) to yield the free-protein ([P]i) and free-ligand ([L]i) concentrations. The free concentrations were used to compute the concentrations of the other states via the equilibrium equations. The heat generated from a given injection was determined using either equations (3) or (6). Parameters were constrained to physically reasonable bounds (e.g. K 1 and K 2 values between 10^2 and 10^10 M ^−1) and best-fits were obtained by maximum likelihood starting from a range of initial estimates. Parameter errors and correlations were estimated using a Bayesian approach (Markov chain Monte Carlo simulations). The error for each integrated heat was determined using NITPIC (Keller et al., 2012[▸]).
Isothermal titration calorimetry was used to characterize the PAF–sclxn binding affinities and stoichiometries (Fig. 7 ▸). The data were fitted to a single-site or a bidentate-ligand model. The latter model describes a bidentate ligand that can bind two protein molecules and was necessary to describe the obviously biphasic data for sclx8. The choice of this model is supported by the observation of a PAF–sclx8–PAF dimer in the crystal structure, and by the spectral broadening in the NMR experiments. All of the fit parameters were well determined by the data (Table 1 ▸), with parameter errors assessed by Bayesian methods (Patil et al., 2010[▸]).

cytochrome c = test system: cytochrome c; parameters: method as in Rennie et al., 2017; details: relative to sclx4, ref Rennie et al., 2017; cited from earlier work
[2] = bidentate-ligand model, binding the first molecule of PAF (K1), pH 6.0, 25°C
[3] = bidentate-ligand model, binding the second molecule of PAF (K2), pH 6.0, 25°C
[4] = bidentate-ligand model, first molecule of PAF (ΔH1), pH 6.0, 25°C
[5] = bidentate-ligand model, first molecule of PAF, pH 6.0, 25°C
[6] = bidentate-ligand model, second molecule of PAF (ΔH2), pH 6.0, 25°C
[7] = bidentate-ligand model, second molecule of PAF, pH 6.0, 25°C
[8] = single-site model, 10 mM sodium phosphate pH 6.0, 25°C

Chain of PAF (Penicillium antifungal protein) (Q01701 entry or part of it): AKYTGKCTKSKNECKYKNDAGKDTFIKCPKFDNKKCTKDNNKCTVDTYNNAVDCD

| SMILES | Kd [1, 2] [µM] | Kd [1, 3] [µM] | ΔH [1, 4] | TΔS [1, 5] | ΔH [1, 6] | TΔS [1, 7] | Kd [1, 8] [µM] | TΔS [1, 8] | ΔH [1, 8] | increase in affinity (with respect to sclx4) (cytochrome c) |
| --- | --- | --- | --- | --- | --- | --- | --- | --- | --- | --- |
| O=S(=O)(O)c1cc2c(O)c(c1)Cc1cc(S(=O)(=O)O)cc(c1O)Cc1cc(S(=O)(=O)O)cc(c1O)Cc1cc(S(=O)(=O)O)cc(c1O)Cc1cc(S(=O)(=O)O)cc(c1O)Cc1cc(S(=O)(=O)O)cc(c1O)Cc1cc(S(=O)(=O)O)cc(c1O)Cc1cc(S(=O)(=O)O)cc(c1O)C2 [sclx8, Sulfonato-calix[8]arene] | 10.6 | 33.5 | −3.5 (0.3, 0.3) kJ mol^−1 | −24.8 (0.3, 0.3) kJ mol^−1 | −36.0 (1.7, 1.4) kJ mol^−1 | 10.5 (1.8, 2.1) kJ mol^−1 | – | – | – | – |
| O=S(=O)(O)c1cc2c(O)c(c1)Cc1cc(S(=O)(=O)O)cc(c1O)Cc1cc(S(=O)(=O)O)cc(c1O)Cc1cc(S(=O)(=O)O)cc(c1O)C2 [sclx4] | – | – | – | – | – | – | 107 | −5.6 (0.2, 0.2) kJ mol^−1 | −16.9 (0.1, 0.1) kJ mol^−1 | – |
| O=P(O)(O)c1cc2c(O)c(c1)Cc1cc(P(=O)(O)O)cc(c1O)Cc1cc(P(=O)(O)O)cc(c1O)Cc1cc(P(=O)(O)O)cc(c1O)Cc1cc(P(=O)(O)O)cc(c1O)Cc1cc(P(=O)(O)O)cc(c1O)C2 [pclx6, phosphonato-calix[6]arene] | – | – | – | – | – | – | – | – | – | approximately tenfold |
| O=S(=O)(O)c1cc2c(O)c(c1)Cc1cc(S(=O)(=O)O)cc(c1O)Cc1cc(S(=O)(=O)O)cc(c1O)Cc1cc(S(=O)(=O)O)cc(c1O)Cc1cc(S(=O)(=O)O)cc(c1O)Cc1cc(S(=O)(=O)O)cc(c1O)C2 [sclx6] | 47.8 | 45.8 | −9.2 (0.1, 0.2) kJ mol^−1 | −15.4 (0.4, 0.3) kJ mol^−1 | −20.1 (0.4, 0.4) kJ mol^−1 | −4.6 (0.6, 0.6) kJ mol^−1 | 15.4 | −0.7 (0.2, 0.2) kJ mol^−1 | −28.2 (0.2, 0.1) kJ mol^−1 | – |
